Legend:
[1] = test system: collagen-induced arthritis in mice; experiment: In vivo CIA model (collagen-induced mouse arthritis); design: species or system DBA/1 mice; conditions: for total pathological score (two hind limbs, HE staining): Mean±SEM
From the text: The collagen-induced mouse arthritis model is an animal model for evaluating the therapeutic effect of drug treatment for psoriatic arthritis, of which pathogenesis and symptoms are obviously related to psoriatic arthritis. The model activated the reactivity of B cells and T cells to collagen by the injection of type II collagen. The activated B cells and T cells were attracted to the joints to cause the inflammation, thereby triggering a series of symptoms related to human psoriatic arthritis, such as redness and swelling of the joints, articular cartilage, joint capsule damage and other symptoms. Collagen-induced mouse arthritis is often used to evaluate the therapeutic effect during preclinical evaluation of candidate compounds for the medication for treating psoriatic arthritis.
The purpose of the experiment was to examine the therapeutic effect of the compound WX063 of embodiment 63 on collagen-induced arthritis in mice, thereby providing the preclinical pharmacodynamics information for subsequent clinical studies.
Mice were randomly divided into different treatment groups. The first immunization day is recorded as Day 0, and the following days were recorded in order.
After the DBA/1 mice were anesthetized with isoflurane, the prepared collagen emulsion was subcutaneously injected into the tail.
On Day 23, 100 μL of LPS solution was administered intraperitoneally.
On day 27, as the mean clinical score reached about 1 point, 60 mice with moderate disease were selected and re-randomized according to body weight and score, with 10 mice per group.
Dexamethasone as a positive control drug was administered at a dose of 0.3 mg/kg, which was common in the CIA model. […] It was administered once a day for a total of 11 days. The volume of the intragastric administration was 10 mL/kg.
Clinical observation: From Day 7 before immunization to Day 23 after immunization, the basic health status and the body weight changes of the DBA/1 mice were observed daily (recorded once a week). After Day 23, the health status, the arthritis incidence and the body weight changes of the mice were observed daily (recorded at least three times a week) until the end of the experiment.
Clinical score: After LPS injection, the arthritis incidence of mice was observed daily. As the clinical symptoms of arthritis occurred, the degree of disease was scored according to the standards of 0-4 (redness, joint deformation) at least three times a week, wherein the highest score for each limb was 4 points, and the highest score for each animal was 16 points. […].
Pathology: On day 38, the mice were euthanized. The hind limbs of the mice were taken, soaked in the 10% formalin solution, decalcified with formic acid solution, embedded in paraffin, sectioned, and stained with hematoxylin-eosin and photographed by microscopy. The degree of joint damage was evaluated from four aspects: inflammatory cell infiltration, formation of […], cartilage damage and bone resorption, and scored according to the standards of 0-4.
The experimental data were expressed as mean value±standard error of mean (Mean±SEM). The body weight and the clinical scores were analyzed by double factor variance (two-way ANOVA). Pathological scores and AUC were tested by T test. p<0.05 was considered as significant difference.

Recombinant human PDE4B = Recombinant human PDE4B (Homo sapiens (Human), UniProt Q07343); experiment: Inhibitory activity against PDE 4B in vitro (fluorescence polarization, Transcreener AMP2/GMP2); type: biochemical; conditions: 1 μM cAMP
Recombinant human PDE4B, sequence (Q07343 305-736 limits assumed): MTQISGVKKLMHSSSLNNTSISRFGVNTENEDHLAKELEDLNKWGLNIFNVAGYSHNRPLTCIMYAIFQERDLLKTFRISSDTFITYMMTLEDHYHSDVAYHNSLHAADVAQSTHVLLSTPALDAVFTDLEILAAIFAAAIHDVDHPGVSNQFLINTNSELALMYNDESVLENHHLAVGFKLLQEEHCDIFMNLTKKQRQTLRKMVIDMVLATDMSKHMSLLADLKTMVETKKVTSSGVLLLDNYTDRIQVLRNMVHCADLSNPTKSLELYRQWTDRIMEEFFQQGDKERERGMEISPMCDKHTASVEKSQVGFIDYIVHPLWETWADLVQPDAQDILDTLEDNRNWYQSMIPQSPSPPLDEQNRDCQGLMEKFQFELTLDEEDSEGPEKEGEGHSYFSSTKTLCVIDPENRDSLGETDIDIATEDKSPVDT
Protocol: Inhibitory activity of the compounds against PDE 4B
The enzyme activity was indicated by measuring the AMP/GMP expression and tracing AMP/GMP antibody binding based on fluorescence polarization in the biological assay.
10 mM Tris-HCl (pH 7.5), 5 mM MgCl2, 0.01% Brij 35, 1 mM DTT and 1% DMSO.
Recombinant human PDE4B (Gen accession number: NM_002600; amino acid 305 end) was expressed by baculovirus in Sf9 insect cells using an N-terminal GST tag. MW=78 kDa.
Transcreener® AMP2/GMP2 antibody and AMP2/GMP2 AlexaFluor633 tracer
i) Recombinant human PDE4B and the enzyme substrate (1 μM cAMP) were dissolved in the newly-prepared buffer solution, respectively.
ii) The PDE4B buffer solution defined as above was transferred into the reaction wells.
iii) The compound which was dissolved in 100% DMSO was added to the reaction wells of the PDE4B buffer solution by ultrasonic oscillator (echo 550; nanoliter range) and incubated at room temperature for 10 minutes.
iv) The enzymatic buffer solution was then added to the reaction wells defined as above to initiate the reaction.
v) The reaction was incubated at room temperature for 1 hour.
vi) The reaction was terminated by adding detecting mixture (Transcreener® AMP2/GMP2 antibody and AMP2/GMP2 AlexaFluor633 tracer) and incubated for 90 minutes with slowly mixing. The measurement range of fluorescence polarization is Ex/Em=620/688.
The fluorescence polarization signal was converted into nM according to the AMP/GMP standard curve and the percent enzyme activity relative to DMSO calculated by Excel. GraphPad Prism was used to plot the curves (Drawing Medicine Icon).

[2] = test system: LPS-induced TNFα from the peripheral monocytes of human; experiment: Inhibitory effect against LPS-induced TNFα in hPBMC in vitro (ELISA); type: cell-based; conditions: Monocyte, TNFα in supernatant, 24 hours
Protocol: Inhibitory activity of the compounds against the LPS-induced TNFα from the peripheral monocytes of human.
1. Whole blood in normal human was collected and EDTA-K2 was used as anticoagulant.
2. PBMC was isolated by Ficoll density gradient centrifugation. The concentration of the cells was adjusted to 2×10^6/mL.
3. 2×10^5 of cells were seed in per well of the 96-well U-bottom plate, followed by the addition of 200 μL/well of LPS with 1 ng/mL and 200 μL/per well of the compound with different concentration: […], 100 pM and 10 pM, with two duplicates of each concentration.
4. The reaction was incubated for 24 hours and the supernatant was collected.
5. ELISA was used to detect the level of TNFα in the supernatant and Graphpad Prism software was used to plot the inhibition curve and calculate the value of IC50.

CCOc1cc([C@@H](CS(C)(=O)=O)N2C(=O)c3cccc(NC(C)=O)c3C2=O)ccc1OC [Apremilast, reference compound]
mean clinical score ([1]; 5 mg/kg intragastric once a day, Day 37): 4.2 points
mean clinical score lower compared with the vehicle control group ([1]; 5 mg/kg, Day 37): 3.7 points
total pathological score (two hind limbs, HE staining) ([1]; 5 mg/kg): 13.90±1.89

C[C@@H]1C[C@H]2[C@@H]3CCC4=CC(=O)C=C[C@]4(C)[C@@]3(F)[C@@H](O)C[C@]2(C)[C@@]1(O)C(=O)CO [Dexamethasone, reference compound]
percentage inhibition of clinical score AUC relative to the vehicle control group ([1]; 0.3 mg/kg): 96.4%
clinical score ([1]; 0.3 mg/kg intragastric once a day, Day 30 and maintained to the end of the trial): 0 points

CCOc1cc([C@@H](CS(C)(=O)=O)n2c(=O)n(Cc3nccc(C)n3)c3cc(Br)cnc32)ccc1OC [WX054]
IC50 (Recombinant human PDE4B): 6.9 nM

CCOc1cc([C@@H](CS(C)(=O)=O)n2c(=O)n(Cc3cncc(C)n3)c3cc(Br)cnc32)ccc1OC [WX055]
IC50 (Recombinant human PDE4B): 6.99 nM

CCOC(=O)Cn1c(=O)n([C@H](CS(C)(=O)=O)c2ccc(OC)c(OCC)c2)c2ncc(Br)cc21 [WX056]
IC50 (Recombinant human PDE4B): 3.4 nM

CCOc1cc([C@@H](CS(C)(=O)=O)n2c(=O)n(C)c3cc(-c4ccccc4F)cnc32)ccc1OC [WX057]
IC50 (Recombinant human PDE4B): 1.25 nM
IC50 [2]: 3.4 nM

CCOc1cc([C@@H](CS(C)(=O)=O)n2c(=O)n(CC)c3cc(-c4ccccc4F)cnc32)ccc1OC [WX058]
IC50 (Recombinant human PDE4B): 1.99 nM

CCOc1cc([C@@H](CS(C)(=O)=O)n2c(=O)n(CCO)c3cc(-c4ccccc4F)cnc32)ccc1OC [WX059]
IC50 (Recombinant human PDE4B): 2.02 nM

CCOc1cc([C@@H](CS(C)(=O)=O)n2c(=O)n(C(C)C)c3cc(-c4ccccc4F)cnc32)ccc1OC [WX060]
IC50 (Recombinant human PDE4B): 3.48 nM

CCOc1cc([C@@H](CS(C)(=O)=O)n2c(=O)n(CC#N)c3cc(-c4ccccc4F)cnc32)ccc1OC [WX061]
IC50 (Recombinant human PDE4B): 0.989 nM

CCOc1cc([C@@H](CS(C)(=O)=O)n2c(=O)n(C3CCC3)c3cc(-c4ccccc4F)cnc32)ccc1OC [WX062]
IC50 (Recombinant human PDE4B): 3.5 nM

CCOc1cc([C@@H](CS(C)(=O)=O)n2c(=O)[nH]c3c(C)c(-c4ccccc4F)cnc32)ccc1OC [WX063]
IC50 (Recombinant human PDE4B): 0.685 nM
IC50 [2]: 0.56 nM
percentage inhibition of clinical score AUC relative to the vehicle control group ([1]; 0.3 mg/kg): 43.9%
mean clinical score ([1]; 0.3 mg/kg intragastric once a day, Day 37): 3.6 points
percentage inhibition of clinical score AUC relative to the vehicle control group ([1]; 1 mg/kg): 39.4%
mean clinical score ([1]; 1 mg/kg intragastric once a day, Day 37): 4.3 points
total pathological score (two hind limbs, HE staining) ([1]; 1 mg/kg): 14.00±2.43
percentage inhibition of clinical score AUC relative to the vehicle control group ([1]; 3 mg/kg): 51.7%
therapeutic effect (clinical score and arthritis pathology score) versus Apremilast 5 mg/kg (in words) ([1]; 3 mg/kg): better than the one of Apremilast
mean clinical score ([1]; 3 mg/kg intragastric once a day, Day 37): 3.5 points
total pathological score (two hind limbs, HE staining) ([1]; 3 mg/kg): 9.20±1.83
treatment of collagen-induced arthritis and pathological changes of arthritis (in words) ([1]; doses of 0.3, 1 and 3 mg/kg): significant improvement

CCOc1cc([C@@H](CS(C)(=O)=O)n2c(=O)[nH]c3c(C)c(-c4ccccc4)cnc32)ccc1OC [WX064]
IC50 (Recombinant human PDE4B): 2.23 nM

CCOc1cc([C@@H](CS(C)(=O)=O)n2c(=O)[nH]c3c(-c4ccccc4F)ccnc32)ccc1OC [WX065]
IC50 (Recombinant human PDE4B): 1.87 nM
IC50 [2]: 8.8 nM

CCOc1cc([C@@H](CS(C)(=O)=O)n2c(=O)[nH]c3c(-c4ccccc4)ccnc32)ccc1OC [WX066]
IC50 (Recombinant human PDE4B): 2.48 nM
IC50 [2]: 3.8 nM

CCOc1cc([C@@H](CS(C)(=O)=O)n2c(=O)[nH]c3c(-c4cnn(C)c4)ccnc32)ccc1OC [WX067]
IC50 (Recombinant human PDE4B): 18.5 nM
IC50 [2]: 6.4 nM

CCOc1cc([C@@H](CS(C)(=O)=O)n2c(=O)[nH]c3c(Cc4ccccc4F)ccnc32)ccc1OC [WX068]
IC50 (Recombinant human PDE4B): 2.24 nM

CCOc1cc(C(CS(C)(=O)=O)N2C(=O)Cc3cc(Br)cnc32)ccc1OC (centres unmarked) [WX069]
IC50 (Recombinant human PDE4B): 47.8 nM

CCOc1cc(C(CS(C)(=O)=O)n2c(=O)oc3cc(Br)cnc32)ccc1OC (centres unmarked) [WX070]
IC50 (Recombinant human PDE4B): 73.8 nM

CCOc1cc(C(CS(C)(=O)=O)n2c(=O)oc3cc(-c4ccccc4F)cnc32)ccc1OC (centres unmarked) [WX071]
IC50 (Recombinant human PDE4B): 0.74 nM

CCOc1cc(C(CS(C)(=O)=O)n2c(=O)[nH]c3cc(-c4ccccc4F)cnc32)ccc1OC(F)F (centres unmarked) [WX073]
IC50 (Recombinant human PDE4B): < 0.5 nM

CCOc1cc(C(CS(C)(=O)=O)n2c(=O)[nH]c3cc(-c4ccccc4)cnc32)ccc1OC(F)F (centres unmarked) [WX074]
IC50 (Recombinant human PDE4B): 1.03 nM

CCOc1cc(C(CS(C)(=O)=O)n2c(=O)[nH]c3c(C)c(C)cnc32)ccc1OC(F)F (centres unmarked) [WX075]
IC50 (Recombinant human PDE4B): 5.39 nM

CCOc1cc(C(CS(C)(=O)=O)n2c(=O)[nH]c3c(C)c(-c4ccccc4F)cnc32)ccc1OC(F)F (centres unmarked) [WX076]
IC50 (Recombinant human PDE4B): < 0.5 nM

CCOc1cc(C(CS(C)(=O)=O)n2c(=O)[nH]c3c(C)c(-c4ccccc4)cnc32)ccc1OC(F)F (centres unmarked) [WX077]
IC50 (Recombinant human PDE4B): 1.01 nM

CCOc1cc(C(CS(C)(=O)=O)n2c(=O)[nH]c3c(-c4ccccc4)ccnc32)ccc1OC(F)F (centres unmarked) [WX078]
IC50 (Recombinant human PDE4B): < 0.5 nM

— patent US10662189B2, “PDE4 inhibitor” (SHIJIAZHUANG SAGACITY NEW DRUG DEVELOPMENT CO., LTD., priority 2016, dated 2020)
